US4447608A, “Anti-cancer quinazoline derivatives” (priority 1979, dated 1984)
Where two headings read alike, the source gives them in different places.

Legend:
[1] = system: L1210 cells; assay: Growth inhibition of L1210 cells in suspension culture, 48 h count; format: cell-based; conditions: Mus musculus
Description: (§1) Cells were diluted to 10^5 /ml and additions (diluted in medium and sterilised in Millipore filtration) made prior to starting each incubation. Cell counts were performed after 24 and 48 hours using an improved Neubauer haemocytometer.

[2] = target: DIHYDROFOLATE REDUCTASE (DHFR); assay: Inhibition of dihydrofolate reductase (DHFR) purified by affinity chromatography; format: biochemical; conditions: Table 1
From the text: (§2) The cytosol of log phase L1210 cells harvested from animals was partially purified for TS I50 and Ki determinations to remove from the preparation a phosphatase which degrades dUMP to deoxyuridine. (The I50 was defined as the inhibitor concentration necessary to reduce the reaction rate of TS by 50%). DHFR was purified by affinity chromatography and Ki determinations performed.

[3] = system: L1210:R71 cells; assay: Growth inhibition of methotrexate-resistant L1210:R71 cells in suspension culture, 48 h count; format: cell-based, mouse; conditions: Table 2; for IC50: Mus musculus, MTX-resistant, 48 hour count reduced to 50% of control, read-out: ID50 L1210:R71
Description: The compounds of Example 2 were evaluated in vitro as inhibitors as TS and cell growth and in vivo against the L1210 tumour. Since methotrexate (MTX) resistance is an important problem in cancer therapy, the compounds of the present invention were also investigated with this in mind.
as §1, with “L1210 and L1210:R71 cells were grown in continuous suspension culture in RPMI 1640 medium containing 10% horse serum (Flow Laboratories, Irvine, Scotland; UK). Cells” for “Cells”

[4] = target: T1, THYMIDYLATE SYNTHETASE (TS) (Mus musculus, UniProt P07607); assay: Inhibition of thymidylate synthetase (TS), partially purified L1210 cytosol; format: biochemical; conditions: Table 1, inhibitor concentration reducing TS reaction rate by 50%, read-out: THYMIDYLATE SYNTHETASE I50
T1 construct: The cytosol of log phase L1210 cells harvested from animals was partially purified for TS I50 and Ki determinations; endogenous in cells; host or cells: L1210 cells harvested from animals (cytosol, partially purified)
From the text: as §2

[5] = target: T2, TS (Mus musculus, UniProt P07607); assay: Inhibition of TS purified >2,000 fold from L1210 cells by affinity chromatography; format: biochemical; conditions: for Relative potency ([drawing 17], I50 relative to CB 3717): relative to CB 3717 control, higher = weaker; for IC50: second results table, TS purified >2,000 fold, read-out: TS I50
T2 construct: endogenous in cells

[6] = system: L1210 cells; assay: Reversal of toxicity to L1210 cells in culture by thymidine; format: cell-based, mouse; conditions: second results table; L1210
Description: as §1, with “L1210 and L1210:R71 cells were grown in continuous suspension culture in RPMI 1640 medium containing 10% horse serum (Flow Laboratories, Irvine, Scotland; UK). Cells” for “Cells”

[7] = L1210, Table 2, 48 hour count reduced to 50% of control, read-out: ID50 L1210
[8] = L1210, 48 h, second results table, read-out: ID50 L1210 (Tissue culture)

T2 sequence (P07607 whole entry): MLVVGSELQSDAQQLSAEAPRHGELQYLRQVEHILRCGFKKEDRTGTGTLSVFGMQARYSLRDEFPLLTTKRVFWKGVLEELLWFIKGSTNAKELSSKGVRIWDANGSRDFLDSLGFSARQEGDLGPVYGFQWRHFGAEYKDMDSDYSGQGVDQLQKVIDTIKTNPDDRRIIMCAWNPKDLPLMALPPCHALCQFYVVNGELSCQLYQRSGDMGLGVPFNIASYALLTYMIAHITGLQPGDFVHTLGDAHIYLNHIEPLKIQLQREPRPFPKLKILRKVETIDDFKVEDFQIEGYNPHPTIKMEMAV
T1 sequence (P07607 whole entry): as above

| SMILES | IC50 [1, 8] [µM] | Relative potency ([drawing 17], I50 relative to CB 3717) [5] | IC50 [5] [µM] | also measured |
| --- | --- | --- | --- | --- |
| C=CCN(Cc1ccc2nc(N)nc(O)c2c1)c1ccc(C(=O)N[C@@H](CCC(=O)O)C(=O)O)cc1 [CB 3716, N-(4-(N-((2-amino-4-hydroxy-6-quinazolinyl)methyl)prop-2-enylamino)benzoyl)-L-glutamic acid] |  |  |  | IC50 [1, 7]: 8.8 µM; Ki [2]: 0.027 µM; IC50 [3]: 100 µM; CROSS RESISTANCE (ID50 L1210:R71/ID50 L1210) [3]: 11; IC50 [4]: 0.069 µM |
| N#CCN(Cc1ccc2nc(N)[nH]c(=O)c2c1)c1ccc(C(=O)N[C@@H](CCC(=O)O)C(=O)O)cc1 [CB 3726] | 5.4 | 15.6 | 0.094 |  |
| Nc1nc2ccc(CN(CC(=O)O)c3ccc(C(=O)N[C@@H](CCC(=O)O)C(=O)O)cc3)cc2c(=O)[nH]1 [CB 3728] | 27 | 100 | 1.4 | Reversal by thymidine (in culture) [6]: yes |
| NC(=O)CN(Cc1ccc2nc(N)[nH]c(=O)c2c1)c1ccc(C(=O)N[C@@H](CCC(=O)O)C(=O)O)cc1 [CB 3734] | 87 | > 62.5 | > 3 | Reversal by thymidine (in culture) [6]: yes |
| Nc1nc2ccc(CN(CCBr)c3ccc(C(=O)N[C@@H](CCC(=O)O)C(=O)O)cc3)cc2c(=O)[nH]1 [CB 3735] | 52 | 23 | 1.1 |  |
| Nc1nc2ccc(CN(CC3CO3)c3ccc(C(=O)N[C@@H](CCC(=O)O)C(=O)O)cc3)cc2c(=O)[nH]1 (stereo partly drawn) [CB 3736] | > 300 | 7.6 | 0.31 |  |
| C#CCN(Cc1ccc2nc(N)[nH]c(=O)c2c1)c1ccc(C(=O)N[C@@H](CCC(=O)O)C(=O)O)c(C)c1 [CB 3738] | 24 | 1.1 | 0.047 |  |
| C#CCN(Cc1ccc2nc(N)[nH]c(=O)c2c1)c1ccc(C(=O)N[C@@H](CCC(=O)O)C(=O)O)c(Cl)c1 [CB 3739] | 17 |  |  |  |
| CCOC(=O)CC[C@H](NC(=O)c1ccc(N(CCBr)Cc2ccc3nc(N)[nH]c(=O)c3c2)cc1)C(=O)OCC [CB 3746] | > 100 |  |  |  |
| CCCN(Cc1ccc2nc(N)[nH]c(=O)c2c1)c1ccc(C(=O)N[C@@H](CCC(=O)O)C(=O)O)cc1 [Comparison, reference compound] |  |  |  | IC50 [1, 7]: 33 µM; Ki [2]: 0.02 µM; IC50 [3]: 315 µM; CROSS RESISTANCE (ID50 L1210:R71/ID50 L1210) [3]: 10; IC50 [4]: 0.17 µM |

More lines, main results first:

| IC50 [1, 8] [µM] | Relative potency ([drawing 17], I50 relative to CB 3717) [5] | IC50 [5] [µM] | SMILES | also measured |
| --- | --- | --- | --- | --- |
| 52 | > 62 | > 3 | C#CCN(Cc1ccc2nc(N)nc(O)c2c1)c1ccc(C(=O)N[C@@H](CCC(=O)OCC)C(=O)OCC)cc1 [CB 3721, diethyl N-(4-(N-((2-amino-4-hydroxy-6-quinazolinyl)methyl)prop-2-ynylamino)benzoyl)-L-glutamate] |  |
| 54 | 8.6 | 0.12 | Nc1nc(O)c2cc(CN(CCCO)c3ccc(C(=O)N[C@@H](CCC(=O)O)C(=O)O)cc3)ccc2n1 [CB 3729, N-(4-(N-((2-amino-4-hydroxy-6-quinazolinyl)methyl)-3-hydroxypropylamino)-benzoyl)-L-glutamic acid] |  |
| 16 | 6.8 | 0.095 | Nc1nc(O)c2cc(CN(CCF)c3ccc(C(=O)N[C@@H](CCC(=O)O)C(=O)O)cc3)ccc2n1 [CB 3731, N-(4-(N-((2-amino-4-hydroxy-6-quinazolinyl)methyl)2-fluoroethylamino)benzoyl)-L-glutamic acid] |  |
| 100 | 40 | 1.64 | Nc1nc(O)c2cc(CN(CC(=O)c3ccccc3)c3ccc(C(=O)N[C@@H](CCC(=O)O)C(=O)O)cc3)ccc2n1 [CB 3733, N-(4-(N-((2-amino-4-hydroxy-6-quinazolinyl)methyl)phenacylamino)benzoyl)-L-glutamic acid] |  |
| > 100 | 1.6 | 0.066 | C#CCN(Cc1ccc2nc(N)[nH]c(=O)c2c1)c1ccc(C(=O)N[C@@H](CC(=O)O)C(=O)O)cc1 [CB 3737] |  |
| 4.7 | > 22 | > 1 | Nc1nc(O)c2cc(CN(Cc3c[nH]c(=O)[nH]c3=O)c3ccc(C(=O)N[C@@H](CCC(=O)O)C(=O)O)cc3)ccc2n1 [CB 3743, N-(4-(N-(2-amino-4-hydroxy-6-quinazolinyl)methyl-N-(5-uracilyl)methyl-amino)benzoyl)-L-glutamic acid] | Reversal by thymidine (in culture) [6]: yes |
| > 100 |  |  | CCOC(=O)CC[C@H](NC(=O)c1ccc(N(CC(=O)c2ccccc2)Cc2ccc3nc(N)nc(O)c3c2)cc1)C(=O)OCC [CB 3744, diethyl N-(4-(N-((2-amino-4-hydroxy-6-quinazolinyl)methyl)phenacylamino)benzoyl)-L-glutamate] |  |
| > 100 |  |  | CCOC(=O)CC[C@H](NC(=O)c1ccc(N(CC(=O)OCC)Cc2ccc3nc(N)[nH]c(=O)c3c2)cc1)C(=O)OCC [CB 3745] |  |
| > 100 |  |  | CCOC(=O)CC[C@H](NC(=O)c1ccc(N(Cc2ccc3nc(N)[nH]c(=O)c3c2)CC(O)CBr)cc1)C(=O)OCC (stereo partly drawn) [CB 3747] |  |
| 100 |  |  | C#CCN(Cc1ccc2nc(N)[nH]c(=O)c2c1)c1ccc(C(=O)N[C@@H](CC(=O)OCC)C(=O)OCC)cc1 [CB 3748] |  |
| 100 |  |  | C#CCN(Cc1ccc2nc(N)[nH]c(=O)c2c1)c1ccc(C(=O)N[C@@H](CCC(=O)OCC)C(=O)OCC)c(C)c1 [CB 3749] |  |
| 18 |  |  | C#CCN(Cc1ccc2nc(N)[nH]c(=O)c2c1)c1ccc(C(=O)N[C@@H](CCC(=O)OCC)C(=O)OCC)c(Cl)c1 [CB 3750] |  |
